Test results from patent publication US9291619B2, “Method for detecting non-transferrin bound iron” (Yissum Research Development Company of the Hebrew …, priority 2011, dated 2016).
Counter-ions that a name gives are not always drawn.

Tests used:
Assay type in all cases: biochemical, human
[1] = eLPI assay (LPI assay with added NTA); conditions: for serum concentration of chelator required for reducing eLPI by 2 μM: 2 hr incubation with thalassemia serum at room temperature, eLPI assay (0.5 mM NTA)
Experimental: (§1) LPI determination, The LPI (Labile iron in plasma) assay was used as described previously or in the presence of NTA added from a concentrated solution. In experiments testing the effects of various additives on LPI, 20 μl of the additives dissolved in HBS (HEPES buffered saline composed of 20 mM HEPES, 150 mM NaCl, pH 7.4) were mixed with 20 μl of serum. Control samples and iron standards were similarly diluted with HBS. LPI assays without added NTA (‘redox-active LPI’) are designated “LPI” and LPI assays with added NTA (0.5 mM unless stated otherwise) are designated “eLPI”.
As the iron-mobilizing effect of NTA on NTBI has been previously shown to be dependent on the NTA concentration, the effect of increasing NTA concentrations on LPI levels in 9 representative sera: 7 from thalassemia patients and 2 from normal individuals (FIG. 1) was assessed. […] The detected LPI signal reached maximum levels at 0.1 mM NTA in sera with LPI <1 μM and at 0.5 mM NTA in thalassemic sera with LPI >1 μM. Control sera […] remained LPI-negative at all tested concentrations of NTA, a finding corroborated in LPI tests carried out with 0.5 mM NTA on >100 sera from normal individuals (data not shown). The same values of LPI were obtained when sera were assayed with 0.5 mM NTA present in the final assay solution or when sera were preincubated with NTA for 1 hr prior to 10-fold dilution with assay solution lacking NTA. Based on the relatively fast (within minutes) and distinct extraction/mobilization of LPI components by moderate NTA treatment depicted in FIG. 1, a modality of the original LPI assay by incorporating 0.5mM NTA as extracting/mobilizing agent was adopted and referred to as enhanced LPI (eLPI).

[2] = LPI (labile plasma iron) assay without NTA; conditions: for serum concentration of chelator required for reducing LPI by 2 μM: 2 hr incubation with thalassemia serum at room temperature, LPI assay without NTA; for effect of added serum component on measured LPI values: added to sera from 6 thalassemic patients, citrate 0.15 mM, albumin 10 mg/ml, uric acid 0.5 mM
Experimental: Determination of LPI and DCI. The properties of the assays used in this study in their different modalities are compiled in Table 2, below.
as §1
Measurements of LPI were originally designed for the detection of labile forms of iron in native human plasma or serum. The purpose was to assess if those labile forms could serve as indicators of impending tissue iron overload and as direct targets of chelation, on the basis that they should be comprised of chemical forms that are distinguishable from the non-labile Tf-bound iron in that they are redox-active, exchangeable with other ligands and accessible to chelators. This led to simple and sensitive assays that are performed under nearly physiological conditions, with 40 μM ascorbate added to initiate redox cycling of the iron and ensuing generation of reactive oxygen species (ROS) that are quantified by a fluorescence assay (Table 1). […] Thus, the assay avoids the inadvertent detection of transferrin-bound iron or labile iron-chelates. The detected LPI reflects the most labile or redox-active forms of NTBI in native plasma or serum, but not putative forms bound to non-labile ligands (e.g. citrate, albumin) In addition, the detection of LPI might be susceptible to masking by plasma antioxidants. […] For comparison, they also used a more direct assay for NTBI, in which DFO-chelatable iron is determined by its stoichiometric binding to the probe fluorescein-DFO in the presence and absence of an iron mobilizing agent.

[3] = DCI (directly chelatable iron) assay with fluorescein-DFO; conditions: for effect of added serum component on DCI values: added to thalassemia sera
Description: DCI determination. The DCI assay (directly chelatable iron) was used for sample analysis of labile iron by assessing its binding to fluorescein-DFO (Table 1) with a fluorescence plate reader or adapted for flow cytometry using as analytical probe fluorescein and DFO covalently coupled to chemically modified polystyrene beads (Spherotec Inc., Lake Forest, Ill., USA) (and an Eclipse instrument (iCyt, Champaign, Ill., USA) (Breuer et al, to be published elsewhere). In tests of the effect of NTA on DCI determination, NTA was added from a stock solution directly to the assay reagents. In experiments testing the effects of various additives on DCI, 20 μl of the additives dissolved in HBS were mixed with 20 μl of serum samples and the combined mixture (40 μl) was used in the assay. Control samples and iron standards were similarly diluted with HBS. In previous publications the term DCI has always indicated the assay format without NTA. In the present work the two formats of the
DCI assay are designated DCI (−) (without NTA) and DCI (+) (with 0.1 mM NTA).
For comparing eLPI with NTBI, the present inventors have employed an alternative assay for NTBI, termed directly-chelatable iron or DCI (FIG. 2, lower panel). Unlike LPI and eLPI which measure iron redox activity, DCI measures the accessibility of NTBI to a fluorescent, high-affinity chelator probe (fluorescein-DFO). […] This was confirmed by testing 22 TM sera for DCI without and with 0.1 mM NTA. An average increase of 0.14±0.13 μM was obtained in the presence of NTA (Breuer, W. and Cabantchik, Z. I, unpublished observations). The concentration of NTA in the DCI assay had to be limited to 0.1 mM to avoid contributions from holo-Tf-iron. Release of iron from holo-Tf by various carboxylate ligands such as NTA in combination with DFO has been documented previously. […] The present inventors tentatively attribute the exogenous albumin-mediated reduction of DCI to the binding of the fluorescein moiety of fluorescein-DFO to one of purified-albumin's hydrophobic binding sites, leading to a partial loss of sensitivity to quenching of the fluorescent chelator by iron. As the majority of such sites is normally occupied in plasma, their interference with the above assay should be minor

With “iron-saturated Tf: human apo-Tf saturated with iron (ferrous ammonium sulfate), dialyzed” as the compound, how does the “effect of added serum component on eLPI values” ([1]; 1 mg/ml added to 6 thalassemia sera in the presence of NTA) read?
The value was “no significant effect”.

Which “serum concentration of chelator required for reducing LPI by 2 μM” value [2] does the source give for `CC(=O)N(O)CCCCCNC(=O)CCC(=O)N(O)CCCCCNC(=O)CCC(=O)N(O)CCCCCN` [DFO, deferrioxamine] here?
Its value is less than 10 µM.

And the “serum concentration of chelator required for reducing eLPI by 2 μM” value [1]?
Its value is roughly 10 µM.

What about the “competition with fluorescein-DFO in preventing the detection of DCI” value ([3]; DCI assays without and with NTA) of the same compound?
Its value is “competed efficiently”.

For `O=C(O)CC(O)(CC(=O)O)C(=O)O` [citrate, sodium citrate], which “effect of added serum component on measured LPI values” [2] is on record?
Its value is “significantly attenuated”.

And the “effect of added serum component on DCI values” [3]?
Its value is “Neither citrate nor uric acid significantly affected DCI values”.

For `O=c1[nH]c(=O)c2[nH]c(=O)[nH]c2[nH]1` [uric acid], which “effect of added serum component on measured LPI values” [2] is on record?
The value was “significantly attenuated”.

And the “effect of added serum component on DCI values” [3]?
The value was “Neither citrate nor uric acid significantly affected DCI values”.

For `Cc1c(O)c(=O)ccn1C` [DFP, 1,2-dimethyl-3-hydroxypyridin-4-one], which “serum concentration of chelator required for reducing LPI by 2 μM” value [2] is on record?
Its value is roughly 25 µM.

And the “serum concentration of chelator required for reducing eLPI by 2 μM” value [1]?
Its value is roughly 75 µM.

What about the “concentration in the serum required to decrease DCI by 2 μM, compared with LPI and eLPI” value ([3]; DCI assays without and with NTA, 2 hr incubation with thalassemia serum) of the same compound?
The value was “markedly greater”.
